Experimental data as given in patent US20230310441A1, “TREATMENT FOR SCHIZOPHRENIA” (TAKEDA PHARMACEUTICAL COMPANY, priority 2020, published 2023).
Marks after values point to notes of the source that are not given here.

Test system: endogenous dopamine release in the human brain
Assay: [^11C]PHNO PET of endogenous dopamine release after d-AMPH challenge
Format: in vivo
Settings: for effect on [^11C]PHNO BPND: d-AMPH 0.5 mg/kg single oral dose, all ROI; for ΔBPND^AMPH Mean (SD), Ca / ΔBPND^AMPH Mean (SD), GP / ΔBPND^AMPH Mean (SD), Pu / ΔBPND^AMPH Mean (SD), SN / ΔBPND^AMPH Mean (SD), VSt: d-AMPH only scan
Protocol: A T1-weighted magnetic resonance imaging (MRI) scan of the brain, performed at screening, was used to obtain anatomical information required for PET data analysis. Each subject underwent three [^11C]PHNO PET scans, one at baseline, the second approximately 3 h after a single oral dose of dex-amphetamine (d-AMPH, 0.5 mg/kg), and the third approximately 5 h after a single oral dose of Compound (I) (20 or 40 mg) and 3 h after an oral dose of dex-amphetamine (d-APMH) (0.5 mg/kg) (FIG. 2).
Subjects were positioned in the PET scanner, after the insertion of a venous cannula in an antecubital or forearm vein. Soft padding and head restraints were used to minimize head movement during data acquisition. All dynamic [^11C]PHNO PET scans were acquired on Siemens Biograph 6 PET/CT scanners (Hi-Rez (PET/CT1) or a TruePoint with TrueV, Siemens Healthcare, Erlangen, Germany). All scans for a particular subject were acquired on the same scanner. A low-dose computed tomography (CT) scan was performed immediately before each PET study to estimate signal attenuation. Following an intravenous bolus injection of [^11C]PHNO, dynamic emission data were acquired for 90 min in 26 frames of increasing duration. The dynamic images were reconstructed using Fourier rebinning and a 2D filtered discrete inverse Fourier transform algorithm with 5 mm isotropic Gaussian filter on a 128×128 matrix with 2.6 zoom giving 2 mm isotropic voxels. Appropriate corrections were applied for attenuation, randoms, and scatter.
The primary set of ROIs defined were the ventral striatum (VSt), putamen (Pu) and cerebellum. […] The cerebellum was used as a reference region. An additional set of ROIs including the caudate nucleus (Ca), globus pallidus (GP) and substantia nigra (SN) was also evaluated.
Regional TAC data extracted from the PET images were fitted using a basis function implementation of the SRTM (Gunn et al., 1997) to estimate the binding potential relative to the non-displaceable component (BPND) for each PET scan, as a measure of specific binding (Innis et al., 2007).
Reduction in [^11C]-PHNO specific binding following a d-AMPH challenge (ΔBPND^APMH) was quantified as percent change in postdose BPND (BPND^AMPH) from baseline BPND (BPND^BL):
Reduction in [^11C]-PHNO specific binding following a combination of Compound (I) and d-AMPH (ΔBPND^APMH+C1) was quantified as percent change in postdose BPND (BPND^AMPH+C1) from baseline BPND (BPND^BL):
The effect of Compound (I) (ΔΔBPND) was quantified as the percent change BPND in ΔBPND^APMH+C1 compared to ΔBPND^APMH:
All statistical comparisons were conducted using Student's t-tests for each ROI, using paired tests for within subject comparisons, and unpaired tests for between group comparisons.

[1] = subjects of the 20 mg Compound (I) group
[2] = subjects of the 40 mg Compound (I) group

## C[C@H](N)Cc1ccccc1 [d-AMPH, Dextroamphetamine, reference compound]
  effect on [^11C]PHNO BPND: significant reduction in BPND
Listed as d-APMH
  effect on [^11C]PHNO BPND: robust reduction of [^11C]PHNO BPND
All subjects
  ΔBPND^AMPH Mean (SD), Ca: 15.6 (5.7) * %
  ΔBPND^AMPH Mean (SD), GP: 15.9 (7.7) * %
  ΔBPND^AMPH Mean (SD), Pu: 21.6 (5.1) * %
  ΔBPND^AMPH Mean (SD), SN: 27.8 (10.9) * %
  ΔBPND^AMPH Mean (SD), VSt: 26.5 (7.7) * %
[1]
  ΔBPND^AMPH Mean (SD), Ca: 17.8 (5.7) * %
  ΔBPND^AMPH Mean (SD), GP: 17.6 (1.5) * %
  ΔBPND^AMPH Mean (SD), Pu: 23.6 (4.6) * %
  ΔBPND^AMPH Mean (SD), SN: 28.4 (9.0) * %
  ΔBPND^AMPH Mean (SD), VSt: 25.4 (8.0) * %
[2]
  ΔBPND^AMPH Mean (SD), Ca: 13.4 (5.3) * %
  ΔBPND^AMPH Mean (SD), GP: 14.2 (11.1) * %
  ΔBPND^AMPH Mean (SD), Pu: 19.6 (5.3) * %
  ΔBPND^AMPH Mean (SD), SN: 27.2 (13.6) * %
  ΔBPND^AMPH Mean (SD), VSt: 27.6 (8.2) * %
